Results from PMC3755381 (Australian journal of chemistry, 2012).

What was measured:
Assay type in all cases: biochemical
PI3Kβ = PI3Kβ (Homo sapiens, UniProt P42338); assay: PI3Kβ inhibition
class I PI3K isoforms = assay: Inhibition of PI3K isoforms; details: for inhibition of PI3K: same compounds synthesized by compound 5 as key intermediate (no contaminant)
PI3Kγ = PI3Kγ (Homo sapiens, UniProt P48736); assay: PI3Kγ inhibition
PI3Kδ = PI3Kδ (Homo sapiens, UniProt O00329); assay: PI3Kδ inhibition
PI3Kα = PI3Kα (Homo sapiens, UniProt P42336); assay: PI3Kα inhibition
PDE2 = PDE2 (Homo sapiens, UniProt O00408); assay: PDE2 inhibition
PDE4 = PDE4 inhibition; details: for IC50: read-out: PDE4 inhibition IC50

Sequence of PI3Kα (P42336 whole entry, species assumed): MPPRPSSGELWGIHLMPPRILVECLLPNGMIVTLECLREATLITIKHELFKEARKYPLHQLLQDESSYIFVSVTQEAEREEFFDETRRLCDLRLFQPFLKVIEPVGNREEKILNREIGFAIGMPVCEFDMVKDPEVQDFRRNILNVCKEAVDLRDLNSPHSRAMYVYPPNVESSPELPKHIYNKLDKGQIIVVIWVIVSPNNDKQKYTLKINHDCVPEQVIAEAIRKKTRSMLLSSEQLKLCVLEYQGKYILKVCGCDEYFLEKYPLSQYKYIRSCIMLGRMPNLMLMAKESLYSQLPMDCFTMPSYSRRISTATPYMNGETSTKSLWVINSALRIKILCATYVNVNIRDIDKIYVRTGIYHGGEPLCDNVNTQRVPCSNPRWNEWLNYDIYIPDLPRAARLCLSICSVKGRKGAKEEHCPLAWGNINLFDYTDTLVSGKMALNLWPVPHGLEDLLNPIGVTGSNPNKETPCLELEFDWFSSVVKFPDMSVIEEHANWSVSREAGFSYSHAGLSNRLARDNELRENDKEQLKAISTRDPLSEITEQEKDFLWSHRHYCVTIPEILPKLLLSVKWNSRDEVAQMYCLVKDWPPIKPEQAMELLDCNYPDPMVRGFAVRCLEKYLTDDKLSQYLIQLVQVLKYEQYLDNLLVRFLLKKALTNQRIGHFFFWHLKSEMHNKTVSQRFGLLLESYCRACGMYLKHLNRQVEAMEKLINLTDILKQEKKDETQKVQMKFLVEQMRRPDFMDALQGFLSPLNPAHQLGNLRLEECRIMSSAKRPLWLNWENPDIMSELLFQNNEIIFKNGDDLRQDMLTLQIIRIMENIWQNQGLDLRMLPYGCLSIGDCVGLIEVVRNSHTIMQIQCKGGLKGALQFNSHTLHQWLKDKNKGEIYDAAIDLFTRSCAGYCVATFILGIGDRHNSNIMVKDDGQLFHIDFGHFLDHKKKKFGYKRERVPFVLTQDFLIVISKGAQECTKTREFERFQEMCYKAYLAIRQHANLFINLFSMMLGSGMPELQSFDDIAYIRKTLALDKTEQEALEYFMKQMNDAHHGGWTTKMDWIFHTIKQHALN
Sequence of PI3Kα (P27986 whole entry partner, species assumed): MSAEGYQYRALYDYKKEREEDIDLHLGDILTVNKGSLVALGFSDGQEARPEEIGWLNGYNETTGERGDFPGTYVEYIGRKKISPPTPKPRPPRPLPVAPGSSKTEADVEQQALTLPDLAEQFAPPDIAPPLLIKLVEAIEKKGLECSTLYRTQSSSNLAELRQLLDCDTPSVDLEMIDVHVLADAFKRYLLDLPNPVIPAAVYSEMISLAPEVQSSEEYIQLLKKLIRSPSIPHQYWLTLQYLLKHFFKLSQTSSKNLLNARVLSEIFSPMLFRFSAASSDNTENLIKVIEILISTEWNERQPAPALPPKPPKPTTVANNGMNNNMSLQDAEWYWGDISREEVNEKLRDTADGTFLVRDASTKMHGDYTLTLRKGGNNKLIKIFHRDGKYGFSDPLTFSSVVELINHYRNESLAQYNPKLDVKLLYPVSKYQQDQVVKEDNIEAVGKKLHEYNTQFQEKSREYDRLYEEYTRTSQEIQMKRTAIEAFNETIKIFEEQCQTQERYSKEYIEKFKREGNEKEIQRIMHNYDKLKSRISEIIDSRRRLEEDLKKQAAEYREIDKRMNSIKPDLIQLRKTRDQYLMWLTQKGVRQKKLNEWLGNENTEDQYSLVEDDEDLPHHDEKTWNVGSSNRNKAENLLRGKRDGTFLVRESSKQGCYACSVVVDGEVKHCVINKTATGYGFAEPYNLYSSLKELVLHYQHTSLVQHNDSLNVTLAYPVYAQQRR
Sequence of PI3Kδ (O00329 whole entry, species assumed): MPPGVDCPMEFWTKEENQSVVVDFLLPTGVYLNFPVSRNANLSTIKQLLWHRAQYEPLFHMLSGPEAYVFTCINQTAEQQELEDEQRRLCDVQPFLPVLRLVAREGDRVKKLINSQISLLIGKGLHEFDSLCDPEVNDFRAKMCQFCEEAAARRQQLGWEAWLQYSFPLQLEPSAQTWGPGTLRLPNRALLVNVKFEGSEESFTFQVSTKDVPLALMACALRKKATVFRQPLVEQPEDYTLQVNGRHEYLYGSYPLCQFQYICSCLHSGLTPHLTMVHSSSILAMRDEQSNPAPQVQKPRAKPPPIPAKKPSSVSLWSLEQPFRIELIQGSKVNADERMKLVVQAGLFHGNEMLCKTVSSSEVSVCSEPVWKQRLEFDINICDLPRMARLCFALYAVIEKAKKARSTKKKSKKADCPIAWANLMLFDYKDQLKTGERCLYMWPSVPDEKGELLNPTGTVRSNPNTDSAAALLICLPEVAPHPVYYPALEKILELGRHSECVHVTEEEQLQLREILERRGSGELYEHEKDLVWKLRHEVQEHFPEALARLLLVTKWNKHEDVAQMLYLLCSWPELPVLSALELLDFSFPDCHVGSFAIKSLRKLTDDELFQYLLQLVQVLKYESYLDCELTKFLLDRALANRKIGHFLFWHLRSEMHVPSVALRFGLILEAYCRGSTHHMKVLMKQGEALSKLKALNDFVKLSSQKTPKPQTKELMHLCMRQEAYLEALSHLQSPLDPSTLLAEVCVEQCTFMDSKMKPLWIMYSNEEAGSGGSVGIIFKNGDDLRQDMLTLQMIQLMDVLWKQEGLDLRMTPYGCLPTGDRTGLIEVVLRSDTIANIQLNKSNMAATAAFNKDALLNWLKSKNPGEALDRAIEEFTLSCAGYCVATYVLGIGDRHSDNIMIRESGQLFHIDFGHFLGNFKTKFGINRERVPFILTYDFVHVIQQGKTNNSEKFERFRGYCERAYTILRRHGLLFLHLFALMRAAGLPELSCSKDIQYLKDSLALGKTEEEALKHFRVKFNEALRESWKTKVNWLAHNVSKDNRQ
Sequence of PI3Kδ (P27986 whole entry partner, species assumed): as the sequence (P27986 whole entry partner, species assumed) above
Sequence of PI3Kβ (P42338 whole entry, species assumed, canonical isoform): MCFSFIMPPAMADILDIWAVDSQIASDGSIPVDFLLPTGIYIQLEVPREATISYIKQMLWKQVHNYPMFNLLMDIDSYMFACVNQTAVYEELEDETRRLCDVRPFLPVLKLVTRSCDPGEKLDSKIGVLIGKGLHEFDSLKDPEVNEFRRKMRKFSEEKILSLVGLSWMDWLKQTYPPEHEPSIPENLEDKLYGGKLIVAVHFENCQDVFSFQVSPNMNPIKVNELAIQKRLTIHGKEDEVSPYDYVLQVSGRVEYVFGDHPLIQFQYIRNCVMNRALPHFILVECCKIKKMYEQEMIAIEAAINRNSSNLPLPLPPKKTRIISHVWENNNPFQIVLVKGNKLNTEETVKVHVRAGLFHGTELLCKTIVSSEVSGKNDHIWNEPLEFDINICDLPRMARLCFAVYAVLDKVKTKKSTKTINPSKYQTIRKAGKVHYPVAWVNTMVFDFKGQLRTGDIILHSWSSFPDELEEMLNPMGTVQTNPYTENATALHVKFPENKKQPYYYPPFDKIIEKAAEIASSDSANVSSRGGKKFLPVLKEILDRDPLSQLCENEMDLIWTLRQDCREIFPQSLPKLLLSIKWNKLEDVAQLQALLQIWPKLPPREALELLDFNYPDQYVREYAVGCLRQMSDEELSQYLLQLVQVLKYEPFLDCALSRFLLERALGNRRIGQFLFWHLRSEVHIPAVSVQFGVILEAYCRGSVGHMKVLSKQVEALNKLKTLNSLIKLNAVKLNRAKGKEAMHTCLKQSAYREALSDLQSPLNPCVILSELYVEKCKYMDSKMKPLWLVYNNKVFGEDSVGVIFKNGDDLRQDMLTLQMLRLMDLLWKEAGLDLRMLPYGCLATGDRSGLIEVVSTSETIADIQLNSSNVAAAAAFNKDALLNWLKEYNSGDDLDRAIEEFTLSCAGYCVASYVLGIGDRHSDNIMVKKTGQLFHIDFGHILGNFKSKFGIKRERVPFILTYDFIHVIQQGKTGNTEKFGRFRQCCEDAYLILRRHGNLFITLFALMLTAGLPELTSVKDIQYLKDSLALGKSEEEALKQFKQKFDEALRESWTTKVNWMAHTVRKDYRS
Sequence of PI3Kβ (P27986 whole entry partner, species assumed, canonical isoform): as the sequence (P27986 whole entry partner, species assumed) above
Sequence of PI3Kγ (P48736 whole entry, species assumed): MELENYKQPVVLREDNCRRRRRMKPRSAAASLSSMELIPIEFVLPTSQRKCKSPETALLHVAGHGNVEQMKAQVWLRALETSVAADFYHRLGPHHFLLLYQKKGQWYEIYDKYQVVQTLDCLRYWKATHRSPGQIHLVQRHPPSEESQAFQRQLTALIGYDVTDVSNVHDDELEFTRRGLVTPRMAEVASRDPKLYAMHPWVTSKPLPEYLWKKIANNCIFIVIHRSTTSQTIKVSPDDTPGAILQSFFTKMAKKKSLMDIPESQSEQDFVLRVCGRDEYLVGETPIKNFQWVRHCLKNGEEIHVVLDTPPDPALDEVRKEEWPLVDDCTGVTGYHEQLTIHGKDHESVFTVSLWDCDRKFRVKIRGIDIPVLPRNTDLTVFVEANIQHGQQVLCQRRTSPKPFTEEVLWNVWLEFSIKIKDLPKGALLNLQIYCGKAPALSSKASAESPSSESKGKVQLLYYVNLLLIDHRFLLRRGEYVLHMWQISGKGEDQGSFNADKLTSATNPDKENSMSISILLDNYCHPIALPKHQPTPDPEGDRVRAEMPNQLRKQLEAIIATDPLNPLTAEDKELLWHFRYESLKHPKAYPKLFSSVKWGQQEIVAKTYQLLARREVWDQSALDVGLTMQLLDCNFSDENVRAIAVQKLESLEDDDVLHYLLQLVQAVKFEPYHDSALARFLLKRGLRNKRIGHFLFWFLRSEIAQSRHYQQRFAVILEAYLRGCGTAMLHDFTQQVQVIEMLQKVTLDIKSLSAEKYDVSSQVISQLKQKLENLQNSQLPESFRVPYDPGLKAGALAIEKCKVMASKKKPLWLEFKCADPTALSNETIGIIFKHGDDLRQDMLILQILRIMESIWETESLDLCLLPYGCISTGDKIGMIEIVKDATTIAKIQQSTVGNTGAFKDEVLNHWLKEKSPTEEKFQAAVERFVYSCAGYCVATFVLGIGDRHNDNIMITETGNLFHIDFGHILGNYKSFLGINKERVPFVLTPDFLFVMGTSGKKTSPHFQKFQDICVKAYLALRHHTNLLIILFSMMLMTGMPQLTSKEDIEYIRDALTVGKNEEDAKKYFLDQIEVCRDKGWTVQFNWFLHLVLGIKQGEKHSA

## O=C1NC(=O)/C(=C/c2ccc3c(c2)OCO3)S1 [Compound 2, (Z)-5-(Benzo[d][1,3]dioxol-5-ylmethylene) thiazolidine-2,4-dione, reference compound]
PI3Kβ
  IC50: 0.6 µM
Class I PI3K isoforms
  inhibition of PI3K isoforms (in words): potent inhibitor
PI3Kγ
  IC50: 0.04 µM

## O=C1NC(=S)/C(=C/c2ccc3c(c2)OCO3)S1 [Compound 4, (Z)-5-(Benzo[d][1,3]dioxol-5-ylmethylene)-4-thioxothiazolidin-2-one]
PI3Kβ
  IC50: 0.15 µM
PI3Kγ
  IC50: 0.12 µM
PI3Kδ
  IC50: 0.76 µM

## CSC1=NC(=O)S/C1=C\c1ccc2c(c1)OCO2 [Compound 5, (Z)-5-(Benzo[d][1,3]dioxol-5-ylmethylene)-4-(methylthio)thiazol-2(5H)-one]
PI3Kα
  IC50: 0.056 µM
PI3Kβ
  IC50: > 1 µM
PI3Kγ
  IC50: 0.06 µM
PI3Kδ
  IC50: 0.038 µM

## C[C@H](/N=C1\NC(=O)S\C1=C/c1ccc2c(c1)OCO2)C(=O)O [Compound 7aa, (S)-2-((Z)-((Z)-5-(Benzo[d][1,3]dioxol-5-ylmethylene)-2-oxothiazolidin-4-ylidene)amino)propanoic Acid]
PI3Kα
  IC50: 19 µM
PI3Kβ
  IC50: 94 µM
PI3Kγ
  IC50: 14.5 µM
PI3Kδ
  IC50: 62 µM

## O=C1NC(=N\[C@@H](Cc2c[nH]c3ccccc23)C(=O)O)/C(=C/c2ccc3c(c2)OCO3)S1 [Compound 7ab]
PI3Kα
  IC50: 26 µM
PI3Kβ
  IC50: 80 µM
PI3Kγ
  IC50: 11 µM
PI3Kδ
  IC50: 43 µM

## O=C1NC(=N\CCc2ccc(O)cc2)/C(=C/c2ccc3c(c2)OCO3)S1 [Compound 7e, (4Z,5Z)-5-(Benzo[d][1,3]dioxol-5-ylmethylene)-4-((4-hydroxyphenethyl)imino)thiazolidin-2-one]
Class I PI3K isoforms
  inhibition of PI3K: no inhibition

## O=C1NC(=N\C2CCCC2)/C(=C/c2ccc3c(c2)OCO3)S1 [Compound 7f, (4Z,5Z)-5-(Benzo[d][1,3]dioxol-5-ylmethylene)-4-(cyclopentylimino)thiazolidin-2-one]
Class I PI3K isoforms
  inhibition of PI3K: no inhibition

## COc1ccc(C/N=C2\NC(=O)S\C2=C/c2ccc3c(c2)OCO3)cc1OC [Compound 7p, (4Z,5Z)-5-(Benzo[d][1,3]dioxol-5-ylmethylene)-4-((3,4-dimethoxybenzyl)imino)thiazolidin-2-one]
PDE2
  IC50: 4.7 µM
PI3Kα
  IC50: > 100 µM
PI3Kβ
  IC50: > 100 µM
Class I PI3K isoforms
  inhibition of PI3K isoforms (in words): no inhibition
PDE4
  IC50: 5.1 µM
PI3Kγ
  IC50: > 100 µM
PI3Kδ
  IC50: > 100 µM

## C/N=C1\NC(=O)S\C1=C/c1ccc2c(c1)OCO2 [Compound 7x, (4Z,5Z)-5-(Benzo[d][1,3]dioxol-5-ylmethylene)-4-(methylimino)thiazolidin-2-one]
PDE2
  IC50: > 10 µM
  activity against PDE2 (in words): virtually inactive
PI3Kα
  IC50: 90 µM
PI3Kβ
  IC50: > 100 µM
PDE4
  activity against PDE4 (in words): virtually inactive
  IC50: > 10 µM
PI3Kγ
  IC50: > 100 µM
PI3Kδ
  IC50: > 100 µM

## CC(O)C/N=C1\NC(=O)S\C1=C/c1ccc2c(c1)OCO2 (stereo not shown) [Compound 7z, (4Z,5Z)-5-(Benzo[d][1,3]dioxol-5-ylmethylene)-4-((2-hydroxypropyl)imino)thiazolidin-2-one]
PDE2
  IC50: > 10 µM
  activity against PDE2 (in words): virtually inactive
PI3Kα
  IC50: > 100 µM
PI3Kβ
  IC50: > 100 µM
PDE4
  activity against PDE4 (in words): virtually inactive
  IC50: > 10 µM
PI3Kγ
  IC50: > 100 µM
PI3Kδ
  IC50: > 100 µM
